Like-named read-outs stand apart in the source and are kept apart here. Each block holds one compound with its values, some of them ahead of it.
Columns and labels:
[1] = biological target: T1, purified recombinant human Aggrecanase-1 (rAgg1) (Homo sapiens, UniProt O75173); test: In vitro fluorescence screen for Aggrecanase-1 inhibitors; format: biochemical; details: for IC50: read-out: Agg1 IC50; for Ki: read-out: Ki Agg1
T1 sequence (O75173 213-837): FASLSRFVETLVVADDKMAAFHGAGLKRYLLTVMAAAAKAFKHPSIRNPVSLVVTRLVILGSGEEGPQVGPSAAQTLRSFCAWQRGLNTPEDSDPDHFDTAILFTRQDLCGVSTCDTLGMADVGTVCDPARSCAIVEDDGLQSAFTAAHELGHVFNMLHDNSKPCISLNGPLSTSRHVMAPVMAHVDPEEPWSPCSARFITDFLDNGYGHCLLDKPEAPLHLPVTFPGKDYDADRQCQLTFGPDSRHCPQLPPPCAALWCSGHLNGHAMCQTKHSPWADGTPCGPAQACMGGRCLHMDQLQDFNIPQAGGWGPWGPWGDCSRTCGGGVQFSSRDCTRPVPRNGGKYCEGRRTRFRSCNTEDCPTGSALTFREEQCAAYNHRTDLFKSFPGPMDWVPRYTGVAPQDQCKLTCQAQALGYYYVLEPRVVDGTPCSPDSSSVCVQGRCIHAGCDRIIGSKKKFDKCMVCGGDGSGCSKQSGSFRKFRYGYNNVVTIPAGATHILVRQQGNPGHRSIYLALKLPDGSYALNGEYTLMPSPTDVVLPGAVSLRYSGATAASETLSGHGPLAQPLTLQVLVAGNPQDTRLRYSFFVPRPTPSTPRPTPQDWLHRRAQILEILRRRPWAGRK

[2] = biological target: T2, purified recombinant human Aggrecanase-2 (Ag2t-Phe628-Strep) (Homo sapiens, UniProt Q9UNA0); test: In vitro fluorescence screen for Aggrecanase-2 inhibitors; format: biochemical; details: for IC50: read-out: Agg 2 IC50; for Ki: read-out: Ki Agg2
T2 construct: the form used is denoted as Ag2t-Phe628-Strep (MW=41,737)
T2 sequence (Q9UNA0 262-628): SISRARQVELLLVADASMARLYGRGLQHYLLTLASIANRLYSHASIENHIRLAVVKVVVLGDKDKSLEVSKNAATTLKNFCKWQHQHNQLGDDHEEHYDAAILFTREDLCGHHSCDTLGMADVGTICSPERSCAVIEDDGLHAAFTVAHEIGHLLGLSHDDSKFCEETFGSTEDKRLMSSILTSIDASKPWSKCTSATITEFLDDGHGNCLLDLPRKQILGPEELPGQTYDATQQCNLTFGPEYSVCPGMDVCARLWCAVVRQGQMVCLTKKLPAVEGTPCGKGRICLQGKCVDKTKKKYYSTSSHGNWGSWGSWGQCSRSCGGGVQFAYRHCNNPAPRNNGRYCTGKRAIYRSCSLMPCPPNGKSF

IC50 ([1]; Table 2): 0.389 µM
IC50 ([2]; Table 2): 2.01 µM
SMILES: C[C@@H](NC(=O)[C@H](CCC(=O)O)NC(=O)c1ccc(-c2ccccc2)cc1)c1ccc(F)cc1 [Example 8TTTTT, N^2-(biphenyl-4-ylcarbonyl)-N^1-[(1R)-1-(4-fluorophenyl)ethyl]-L-α-glutamine]

IC50 ([1]; Table 3): 0.707 µM
inhibition at 11 µM ([2]; Table 3, at 11000 (nM), read-out: Agg 2 % at concentration): 20%
SMILES: Cc1cccc(CNC(=O)[C@H](CCC(=O)O)NC(=O)c2ccc(-c3cccc(CBr)c3)cc2)c1 [Example 8TTTTTTT, N^2-{[3′-(bromomethyl)biphenyl-4-yl]carbonyl}-N-(3-methylbenzyl)-L-α-glutamine]

IC50 ([1]; Table 2): > 17 µM
IC50 ([2]; Table 2): ~67 µM
SMILES: O=C(O)CC[C@H](NC(=O)C1c2ccccc2-c2ccccc21)C(=O)NCCCCCCO [Example 8UUUU, N^2-(9H-fluoren-9-ylcarbonyl)-N^1-(6-hydroxyhexyl)-L-α-glutamine]

IC50 ([1]; Table 2): 0.317 µM
IC50 ([2]; Table 2): 2.12 µM
SMILES: C[C@@H](NC(=O)[C@H](CCC(=O)O)NC(=O)c1ccc(-c2ccccc2)cc1)c1ccccc1 [Example 8UUUUU, N^2-(biphenyl-4-ylcarbonyl)-N^1-[(1R)-1-phenylethyl]-L-α-glutamine]

IC50 ([1]; Table 2): > 17 µM
IC50 ([2]; Table 2): > 67 µM
SMILES: COc1cc(CNC(=O)[C@H](CCC(=O)O)NC(=O)C2c3ccccc3-c3ccccc32)cc(OC)c1OC [Example 8VVVV, N^2-(9H-fluoren-9-ylcarbonyl)-N^1-(3,4,5-trimethoxybenzyl)-L-α-glutamine]

IC50 ([1]; Table 2): 0.221 µM
IC50 ([2]; Table 2): 1.56 µM
SMILES: C[C@@H](NC(=O)[C@H](CCC(=O)O)NC(=O)c1ccc2c(c1)Cc1ccccc1-2)c1ccccc1 [Example 8VVVVV, N^2-(9H-fluoren-2-ylcarbonyl)-N^1-[(1R)-1-phenylethyl]-L-α-glutamine]

IC50 ([1]; Table 2): 8.3 µM
IC50 ([2]; Table 2): > 67 µM
SMILES: COc1cc(CNC(=O)[C@H](CCC(=O)O)NC(=O)c2cccc(Oc3ccccc3)c2)cc(OC)c1OC [Example 8WWWW, N^2-(3-phenoxybenzoyl)-N^1-(3,4,5-trimethoxybenzyl)-L-α-glutamine]

IC50 ([1]; Table 2): > 17 µM
IC50 ([2]; Table 2): > 67 µM
SMILES: O=C(O)CC[C@H](NC(=O)c1cccc2c1Cc1ccccc1-2)C(=O)NCCCCCCO [Example 8WWWWW, N^2-(9H-fluoren-1-ylcarbonyl)-N^1-(6-hydroxyhexyl)-L-α-glutamine]

IC50 ([1]; Table 2): > 50 µM
IC50 ([2]; Table 2): > 200 µM
SMILES: COc1cc(CNC(=O)[C@H](CCC(=O)O)NC(=O)c2cccc3c2-c2ccccc2C3)cc(OC)c1OC [Example 8XXXX, N^2-(9H-fluoren-4-ylcarbonyl)-N^1-(3,4,5-trimethoxybenzyl)-L-α-glutamine]

IC50 ([1]; Table 2): 0.246 µM
IC50 ([2]; Table 2): 1.45 µM
SMILES: O=C(O)CC[C@H](NC(=O)c1ccc2c(c1)C(=O)c1ccccc1-2)C(=O)NCCCCCCO [Example 8XXXXX, N^1-(6-hydroxyhexyl)-N^2-[(9-oxo-9H-fluoren-2-yl)carbonyl]-L-α-glutamine]

IC50 ([1]; Table 3): < 0.03 µM
Ki ([1]; Table 3): 0.0045 µM
IC50 ([2]; Table 3): 0.02 to 0.07 µM
Ki ([2]; Table 3): 0.056 µM
SMILES: CC(C)(Cc1ccc(Cl)cc1)NC(=O)[C@H](CCC(=O)O)NC(=O)c1ccc(-c2cccs2)cc1 [Example 8XXXXXXX, N-[2-(4-chlorophenyl)-1,1-dimethylethyl]-N^2-[4-(2-thienyl)benzoyl]-L-α-glutamine]

IC50 ([1]; Table 3): 0.1 µM
IC50 ([2]; Table 3): 1.7 µM
SMILES: CC(C)(Cc1ccc(Cl)cc1)NC(=O)[C@H](CCC(=O)O)NC(=O)c1ccc(-c2ccccc2)nc1 [Example 8XXXXXXXX, N-[2-(4-chlorophenyl)-1,1-dimethylethyl]-N^2-[(6-phenylpyridin-3-yl)carbonyl]-L-α-glutamine]

IC50 ([1]; Table 1): 0.53 µM
IC50 ([2]; Table 1): 4.5 µM
SMILES: O=C(O)CC[C@H](NC(=O)c1ccc(-c2ccccc2)cc1)C(=O)NCCc1cccc(Cl)c1 [Example 8YY, N^2-(1,1′-biphenyl-4-ylcarbonyl)-N^1-[2-(3-chlorophenyl)ethyl]-L-α-glutamine]

IC50 ([1]; Table 2): 1.5 µM
IC50 ([2]; Table 2): > 200 µM
SMILES: O=C(O)CC[C@H](NC(=O)c1ccc2c(c1)C(=O)c1ccccc1-2)C(=O)NC12CC3CC(CC(C3)C1)C2 [Example 8YYYY, N^1-1-adamantyl-N^2-[(9-oxo-9H-fluoren-2-yl)carbonyl]-L-α-glutamine]

IC50 ([1]; Table 3): < 0.03 µM
Ki ([1]; Table 3): 0.027 µM
IC50 ([2]; Table 3): 0.2 to 0.6 µM
Ki ([2]; Table 3): 0.197 µM
SMILES: COc1cccc(-c2ccc(C(=O)N[C@@H](CCC(=O)O)C(=O)NC(C)(C)Cc3ccc(Cl)cc3)s2)c1 [Example 8YYYYYYY, N-[2-(4-chlorophenyl)-1,1-dimethylethyl]-N^2-{[5-(3-methoxyphenyl)-2-thienyl]carbonyl}-L-α-glutamine]

IC50 ([1]; Table 2): > 17 µM
IC50 ([2]; Table 2): > 22 µM
SMILES: O=C(O)CC[C@H](NC(=O)c1ccc(Oc2ccccc2)cc1)C(=O)NC12CC3CC(CC(C3)C1)C2 [Example 8ZZZZ, N^1-1-adamantyl-N^2-(4-phenoxybenzoyl)-L-α-glutamine]

IC50 ([1]; Table 3): < 0.03 µM
IC50 ([2]; Table 3): 0.12 µM
SMILES: CC(C)(Cc1ccc(Cl)cc1)NC(=O)[C@H](CCC(=O)O)NC(=O)c1ccc(-c2ccc(F)c(F)c2)cc1 [Example 8ZZZZZZ, N-[2-(4-chlorophenyl)-1,1-dimethylethyl]-N^2-[(3′,4′-difluorobiphenyl-4-yl)carbonyl]-L-α-glutamine]

IC50 ([1]; Table 3): < 0.03 µM
Ki ([1]; Table 3): 0.0127 µM
IC50 ([2]; Table 3): 0.2 to 0.6 µM
Ki ([2]; Table 3): 0.29 µM
SMILES: CC(C)(Cc1ccc(Cl)cc1)NC(=O)[C@H](CCC(=O)O)NC(=O)c1ccc(-c2ccccc2)s1 [Example 8ZZZZZZZ, N-[2-(4-chlorophenyl)-1,1-dimethylethyl]-N^2-[(5-phenyl-2-thienyl)carbonyl]-L-α-glutamine]

IC50 ([1]; Table 3): 0.02 to 0.07 µM
IC50 ([2]; Table 3): 9.9 µM
SMILES: CC(C)(Cc1ccc(F)cc1)NC(=O)[C@H](CCC(=O)O)NC(=O)c1ccc(-c2cccnc2)s1 [Example 8ZZZZZZZZ, N-[2-(4-fluorophenyl)-1,1-dimethylethyl]-N^2-[(5-pyridin-3-yl-2-thienyl)carbonyl]-L-α-glutamine]

IC50 ([1]; Table 1): 0.84 µM
IC50 ([2]; Table 1): 2.1 µM
SMILES: O=C(O)CC[C@H](NC(=O)c1ccc(-c2ccccc2)cc1)C(=O)NCCc1ccc(-c2ccc(C(F)(F)F)cc2)cc1 [Example 10A, N^2-(biphenyl-4-ylcarbonyl)-N^1-{2-[4′-(trifluoromethyl)biphenyl-4-yl]ethyl}-L-α-glutamine]

IC50 ([1]; Table 1): 0.24 µM
IC50 ([2]; Table 1): > 5 µM
SMILES: O=C(O)CC[C@H](NC(=O)c1ccc(-c2ccccc2)cc1)C(=O)NCCc1ccc(-c2ccccc2)cc1 [Example 10C, N^2-(biphenyl-4-ylcarbonyl)-N^1-(2-biphenyl-4-ylethyl)-L-α-glutamine]

IC50 ([1]; Table 1): 0.48 µM
IC50 ([2]; Table 1): 3.2 µM
SMILES: O=C(O)CC[C@H](NC(=O)c1ccc(-c2ccccc2)cc1)C(=O)NCCc1ccc(-c2cccs2)cc1 [Example 10D, N^2-(biphenyl-4-ylcarbonyl)-N^1-{2-[4-(2-thienyl)phenyl]ethyl}-L-α-glutamine]

IC50 ([1]; Table 1): 0.13 µM
IC50 ([2]; Table 1): > 30 µM
SMILES: C#Cc1ccc(-c2ccc(CCNC(=O)[C@H](CCC(=O)O)NC(=O)c3ccc(-c4ccccc4)cc3)cc2)cc1 [Example 10F, N^2-(biphenyl-4-ylcarbonyl)-N^1-[2-(4′-ethynylbiphenyl-4-yl)ethyl]-L-α-glutamine]

IC50 ([1]; Table 1): 1 µM
IC50 ([2]; Table 1): 4.4 µM
SMILES: O=C(O)CC[C@H](NC(=O)c1ccc(-c2ccccc2)cc1)C(=O)NCCc1ccc(-c2ccccn2)cc1 [Example 10G, N^2-(biphenyl-4-ylcarbonyl)-N^1-[2-(4-pyridin-2-ylphenyl)ethyl]-L-α-glutamine]

IC50 ([1]; Table 1): 0.38 µM
IC50 ([2]; Table 1): > 100 µM
SMILES: O=C(O)CC[C@H](NC(=O)c1ccc(-c2ccccc2)cc1)C(=O)NCCc1cccc(-c2ccc(C(F)(F)F)cc2)c1 [Example 10K, N^2-(biphenyl-4-ylcarbonyl)-N^1-{2-[4′-(trifluoromethyl)biphenyl-3-yl]ethyl}-L-α-glutamine]

IC50 ([1]; Table 1): 0.13 µM
IC50 ([2]; Table 1): 2 µM
SMILES: COc1ccc(-c2cccc(CCNC(=O)[C@H](CCC(=O)O)NC(=O)c3ccc(-c4ccccc4)cc3)c2)cc1 [Example 10L, N^2-(biphenyl-4-ylcarbonyl)-N^1-[2-(4′-methoxybiphenyl-3-yl)ethyl]-L-α-glutamine]

IC50 ([1]; Table 2): ~3 µM
IC50 ([2]; Table 2): 3 to 8 µM
SMILES: O=C(O)CC[C@H](NC(=O)c1ccc(-c2ccc3ccccc3c2)cc1)C(=O)NCc1ccccc1 [Example 12F, N-benzyl-N^2-[4-(2-naphthyl)benzoyl]-L-α-glutamine]

IC50 ([1]; Table 2): > 25 µM
IC50 ([2]; Table 2): 11.7 µM
SMILES: O=C(O)CC[C@H](NC(=O)c1ccc(C#Cc2ccccc2)cc1)C(=O)NCc1ccccc1 [Example 12G, N-benzyl-N^2-[4-(phenylethynyl)benzoyl]-L-α-glutamine]

Reference: patent US7998965B2, “Glutamate aggrecanase inhibitors” (Wyeth LLC, priority 2005, dated 2011)
